Data on six molecules can be found in patent US5525629A, “Inhibition of cytokine production” (British Bio-Technology Limited, priority 1992, dated 1996).

pIC50: −log10 of the molar value.

In assay [1] the test system is serum TNF. Kind of assay: inhibition of endotoxin (LPS) induced TNF production in vivo (serum TNF by L929 cytotoxicity assay). Details: species or system Male New Zealand rabbits. As for the experimental part:
The compound of Example 3 was assessed for its ability to inhibit release of endotoxin induced TNF production in vivo.
Male New Zealand rabbits, 2.5-3.0 kg, were anaesthetised with sodium pentobarbitone, 30 mg.kg^-1 via a marginal ear vein which was maintained by infusion at 18 mg.kg^-1.hr^-1 via a jugular vein. Following tracheotomy, the animals were ventilated, to maintain arterial blood […], and oxygen was added to the inspired air to maintain arterial blood PO2 above 100 mmHg. Both femoral veins were cannulated for the administration of endotoxin (LPS) and the infusion of test compound, 2.5 mg.kg^-1.hr^-1 at a rate of 6 ml.hr^-1, 15 minutes before the administration of LPS, 40 μg.kg^-1 i.v. bolus. Blood samples were collected from a femoral artery just before and at 30 minute intervals after the administration of LPS for a period of 4 hours.
The biological activity of TNF in serum test samples was determined using a cytotoxicity assay as described in Mathews, N. and Neale, M. L. in Lymphokines and Interferons, a Practical Approach, Eds. M. J. Clements, A. G. Morris, and A. J. H. Gearing, IRL Press, Oxford, UK.
100 μl volumes of L929 cell suspension at 10^5 cells/ml were dispensed into 96-well microtitre plates. The plates were incubated overnight to allow formation of an even monolayer. A series of dilutions of the test rabbit serum was made in a culture medium containing 2 μg/ml of actinomycin D to give a final concentration of 1 μg/ml when added to the cells. The L929 cells were incubated for 24 hours in the presence of test samples, and serially diluted human TNF α was used as the assay standard. After the incubation period, dead cells were removed by washing briefly with phosphate buffered saline, and remaining cells were fixed with 4% formaldehyde for 10 minutes. After washing the plates with water to remove the fixative, the cells were stained by the addition of 50 μl of 1% crystal violet to each well for 5 minutes. The plates were washed extensively with water and dried. Cells were solubilised by the addition of 100 μl/well of 30% acetic acid and the OD at 550 nm was determined. The TNF level in units/ml in the test samples was determined from the human TNF α standard curve. where 1 unit is the equivalent of 1 pg/ml human TNF α.

Assay [2] relates to TNF α release from a human monocytic cell line, U937. Kind of assay: inhibition of PMA-stimulated TNF α release from U937 cells (TNF α ELISA). In kind it is cell-based. Particulars: U-937, PMA 50 nM, 18 hours at 37° C., read-out: concentration of test compound which inhibits the release of TNF α by 50% relative to the control culture (IC50). The method, then:
The ability of example compounds of the invention to inhibit the release of TNF was investigated. The assay is based on the ability of phorbol myristate acetate (PMA) to stimulate the release of TNF α from a human monocytic cell line, U937.
U937 cells cultured in RPMI 1640 medium +5% foetal calf serum are centifuged at 1000×g for 5 minutes and then resuspended in medium at 2×10^6 /mi. 1 ml of cell suspension is aliquoted into individual wells of 24-well plates. Test compounds are dissolved in dimethyl sulphoxide (DMSO) at a stock concentration of 100 mM, then diluted to 50×the final required concentration with RPMI 1640 medium. 20 μl of the diluted compounds are added to U937 cells in duplicate wells. TNF α release is stimulated by addition of PMA to the cells at a final concentration of 50 nM. Appropriate control cultures are set up in duplicate. The plates are incubated for 18 hours at 37° C., 5% CO2, then centrifuged at 1000×g for 5 minutes. A specific ELISA for TNF α obtained from British Bio-technology Products Limited, Abingdon, England is used to measure TNF α levels in the culture supernatants
The average concentration of test compound which inhibits the release of TNF α by 50% relative to the control culture was assessed.
(In general: An ELISA detects its analyte on a solid surface through an enzyme-linked reagent.)

Assay [3] deals with stromelysin (Homo sapiens, UniProt P08254). Description: inhibition of stromelysin (Cawston et al, acetylated 14C casein). The following applies: 37°, 16 hours, pH 7.5. In kind it is biochemical. The source says:
The casein was acetylated ^14 C casein prepared by the method of Cawston et al (ibid).

The target in assay [4] is T1, collagenase (Homo sapiens, UniProt P03956).
T1 sequence (P03956 100-469): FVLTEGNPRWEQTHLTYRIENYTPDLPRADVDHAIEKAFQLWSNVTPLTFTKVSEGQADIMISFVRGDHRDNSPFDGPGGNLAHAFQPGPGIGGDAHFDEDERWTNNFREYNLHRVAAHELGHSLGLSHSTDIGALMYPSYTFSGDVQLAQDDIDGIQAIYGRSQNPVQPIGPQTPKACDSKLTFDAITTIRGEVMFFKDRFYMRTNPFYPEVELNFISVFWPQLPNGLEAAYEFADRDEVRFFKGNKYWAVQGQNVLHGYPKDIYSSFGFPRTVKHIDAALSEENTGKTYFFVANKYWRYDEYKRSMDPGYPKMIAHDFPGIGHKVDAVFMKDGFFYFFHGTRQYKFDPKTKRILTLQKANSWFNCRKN
Kind of assay: inhibition of collagenase (Cawston and Barrett, acetylated 14C collagen). In kind it is biochemical. The following applies: 37°, 16 hours, pH 7.5. The source says:
The collagen was acetylated ^14 C collagen prepared by the method of Cawston and Murphy, (Methods in Enzymology, 80, 711, 1981), hereby incorporated by reference. The samples were centrifuged to sediment undigested collagen, and an aliquot of the radioactive supernatant removed for assay on a scintillation counter as a measure of hydrolysis.

Assay [5] concerns TNF production by leucocytes. Particulars: literature (Sampajo et al, 1991); cited from earlier work.
For assay [6], the system named is TNF gene transcription. Particulars: literature; compared with corticosteroids, cyclosporin-A, FK506; cited from earlier work.

Sequence of stromelysin (P08254 100-477): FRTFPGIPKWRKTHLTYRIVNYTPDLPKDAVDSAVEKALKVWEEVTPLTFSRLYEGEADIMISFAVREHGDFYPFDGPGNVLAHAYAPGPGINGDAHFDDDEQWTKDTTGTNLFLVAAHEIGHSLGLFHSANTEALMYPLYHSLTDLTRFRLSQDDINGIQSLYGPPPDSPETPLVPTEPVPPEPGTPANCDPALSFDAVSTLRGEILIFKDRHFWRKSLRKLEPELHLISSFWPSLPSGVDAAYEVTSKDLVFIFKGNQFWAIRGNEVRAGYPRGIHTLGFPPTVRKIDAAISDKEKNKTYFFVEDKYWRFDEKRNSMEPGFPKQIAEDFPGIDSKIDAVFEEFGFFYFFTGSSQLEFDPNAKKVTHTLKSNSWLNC

On to `CNC(=O)[C@H](CCC(=O)OC)NC(=O)[C@H](CC(C)C)[C@H](CSc1ccc(O)cc1)C(=O)NO` [Example 3, 2S-(4-Hydroxyphenylsulfanylmethyl)-3R-(3-methoxycarbonyl-1S-methylcarbamoyl-propylcarbamoyl)-5-methyl-hexanohydroxamic acid], for which the “Average % change in serum TNF level, LPS + test compound” value is recorded as 0% in assay [1] (0 hrs from LPS bolus IV injection, infusion 2.5 mg.kg^-1.hr^-1 started 15 minutes before LPS 40 μg.kg^-1 i.v., n = 4); -58% in assay [1] (1 hr from LPS bolus, infusion 2.5 mg.kg^-1.hr^-1, LPS alone (n = 5) +65); -65% in assay [1] (2 hrs from LPS bolus, infusion 2.5 mg.kg^-1.hr^-1, LPS alone (n = 5) +55); -99% in assay [1] (3 hrs from LPS bolus, infusion 2.5 mg.kg^-1.hr^-1, LPS alone (n = 5) -30); -100% in assay [1] (4 hrs from LPS bolus, infusion 2.5 mg.kg^-1.hr^-1, LPS alone (n = 5) -100). Besides, the figures for the pIC50 in assay [2], in assay [3] and in assay [4] were greater than 4.30, 7.30 and 8.05, respectively.
Turning to `CNC(=O)[C@H](CCC(=O)OC)NC(=O)[C@H](CC(C)C)[C@H](CSc1ccccc1)C(=O)NO` [Example 1, 3R-(3-Methoxycarbonyl-1S-methylcarbamoyl-propylcarbamoyl)-5-methyl-2-S-phenylsulfanylmethyl hexanohydroxamic acid], the results for the pIC50 in assay [3] and in assay [4] were 6.60 and 7.70, respectively.
With `CNC(=O)[C@H](CCC(=O)OC(C)(C)C)NC(=O)[C@H](CC(C)C)[C@H](CSc1ccc(O)cc1)C(=O)NO` [Example 12, 2S-(4-Hydroxyphenylsulfanylmethyl)-3R-(3-tertbutoxycarbonyl-1S-methylcarbamoyl-propylcarbamoyl)-5-methyl-hexanohydroxamic acid], the figures for the pIC50 in assay [2], in assay [3] and in assay [4] were greater than 4.30, 7.40 and 7.70, respectively.
Turning to `O=C1CCC(N2C(=O)c3ccccc3C2=O)C(=O)N1` (centres unmarked) [Thalidomide], the “inhibition of TNF production by leucocytes” value in assay [5] is listed as “inhibit TNF production by leucocytes”.
In the case of `CC(=O)CCCCn1c(=O)c2c(ncn2C)n(C)c1=O` [pentoxyfilline], the “specificity of inhibition of TNF gene transcription” value in assay [6] is given as “more specific inhibitors of TNF gene transcription”.
Turning to `CNC(=O)[C@H](CCC(=O)OC)NC(=O)[C@H](CC(C)C)[C@H](CSc1cccs1)C(=O)NO` [Example 2, 3R-(3-Methoxycarbonyl-1S-methylcarbamoyl-propylcarbamoyl)-5-methyl-2S-(thien-2-ylsulfanylmethyl)-hexanohydroxamic acid], the pIC50 was greater than 4.30 in assay [2] and 7.82 in assay [4].
